Reference: patent publication US20130237535A1, “FATTY ACID SYNTHASE INHIBITORS” (priority 2010, published 2013)

These molecules were tested against FAS (Homo sapiens, UniProt P49327) (assay: FAS assay (Assay #1 residual NADPH detection or Assay #2 CoA detection with thio-reactive coumarin dye)). Conditions: average IC50 values, each compound tested two or more times; FAS Assay #1 or #2.
FAS, sequence (P49327 whole entry): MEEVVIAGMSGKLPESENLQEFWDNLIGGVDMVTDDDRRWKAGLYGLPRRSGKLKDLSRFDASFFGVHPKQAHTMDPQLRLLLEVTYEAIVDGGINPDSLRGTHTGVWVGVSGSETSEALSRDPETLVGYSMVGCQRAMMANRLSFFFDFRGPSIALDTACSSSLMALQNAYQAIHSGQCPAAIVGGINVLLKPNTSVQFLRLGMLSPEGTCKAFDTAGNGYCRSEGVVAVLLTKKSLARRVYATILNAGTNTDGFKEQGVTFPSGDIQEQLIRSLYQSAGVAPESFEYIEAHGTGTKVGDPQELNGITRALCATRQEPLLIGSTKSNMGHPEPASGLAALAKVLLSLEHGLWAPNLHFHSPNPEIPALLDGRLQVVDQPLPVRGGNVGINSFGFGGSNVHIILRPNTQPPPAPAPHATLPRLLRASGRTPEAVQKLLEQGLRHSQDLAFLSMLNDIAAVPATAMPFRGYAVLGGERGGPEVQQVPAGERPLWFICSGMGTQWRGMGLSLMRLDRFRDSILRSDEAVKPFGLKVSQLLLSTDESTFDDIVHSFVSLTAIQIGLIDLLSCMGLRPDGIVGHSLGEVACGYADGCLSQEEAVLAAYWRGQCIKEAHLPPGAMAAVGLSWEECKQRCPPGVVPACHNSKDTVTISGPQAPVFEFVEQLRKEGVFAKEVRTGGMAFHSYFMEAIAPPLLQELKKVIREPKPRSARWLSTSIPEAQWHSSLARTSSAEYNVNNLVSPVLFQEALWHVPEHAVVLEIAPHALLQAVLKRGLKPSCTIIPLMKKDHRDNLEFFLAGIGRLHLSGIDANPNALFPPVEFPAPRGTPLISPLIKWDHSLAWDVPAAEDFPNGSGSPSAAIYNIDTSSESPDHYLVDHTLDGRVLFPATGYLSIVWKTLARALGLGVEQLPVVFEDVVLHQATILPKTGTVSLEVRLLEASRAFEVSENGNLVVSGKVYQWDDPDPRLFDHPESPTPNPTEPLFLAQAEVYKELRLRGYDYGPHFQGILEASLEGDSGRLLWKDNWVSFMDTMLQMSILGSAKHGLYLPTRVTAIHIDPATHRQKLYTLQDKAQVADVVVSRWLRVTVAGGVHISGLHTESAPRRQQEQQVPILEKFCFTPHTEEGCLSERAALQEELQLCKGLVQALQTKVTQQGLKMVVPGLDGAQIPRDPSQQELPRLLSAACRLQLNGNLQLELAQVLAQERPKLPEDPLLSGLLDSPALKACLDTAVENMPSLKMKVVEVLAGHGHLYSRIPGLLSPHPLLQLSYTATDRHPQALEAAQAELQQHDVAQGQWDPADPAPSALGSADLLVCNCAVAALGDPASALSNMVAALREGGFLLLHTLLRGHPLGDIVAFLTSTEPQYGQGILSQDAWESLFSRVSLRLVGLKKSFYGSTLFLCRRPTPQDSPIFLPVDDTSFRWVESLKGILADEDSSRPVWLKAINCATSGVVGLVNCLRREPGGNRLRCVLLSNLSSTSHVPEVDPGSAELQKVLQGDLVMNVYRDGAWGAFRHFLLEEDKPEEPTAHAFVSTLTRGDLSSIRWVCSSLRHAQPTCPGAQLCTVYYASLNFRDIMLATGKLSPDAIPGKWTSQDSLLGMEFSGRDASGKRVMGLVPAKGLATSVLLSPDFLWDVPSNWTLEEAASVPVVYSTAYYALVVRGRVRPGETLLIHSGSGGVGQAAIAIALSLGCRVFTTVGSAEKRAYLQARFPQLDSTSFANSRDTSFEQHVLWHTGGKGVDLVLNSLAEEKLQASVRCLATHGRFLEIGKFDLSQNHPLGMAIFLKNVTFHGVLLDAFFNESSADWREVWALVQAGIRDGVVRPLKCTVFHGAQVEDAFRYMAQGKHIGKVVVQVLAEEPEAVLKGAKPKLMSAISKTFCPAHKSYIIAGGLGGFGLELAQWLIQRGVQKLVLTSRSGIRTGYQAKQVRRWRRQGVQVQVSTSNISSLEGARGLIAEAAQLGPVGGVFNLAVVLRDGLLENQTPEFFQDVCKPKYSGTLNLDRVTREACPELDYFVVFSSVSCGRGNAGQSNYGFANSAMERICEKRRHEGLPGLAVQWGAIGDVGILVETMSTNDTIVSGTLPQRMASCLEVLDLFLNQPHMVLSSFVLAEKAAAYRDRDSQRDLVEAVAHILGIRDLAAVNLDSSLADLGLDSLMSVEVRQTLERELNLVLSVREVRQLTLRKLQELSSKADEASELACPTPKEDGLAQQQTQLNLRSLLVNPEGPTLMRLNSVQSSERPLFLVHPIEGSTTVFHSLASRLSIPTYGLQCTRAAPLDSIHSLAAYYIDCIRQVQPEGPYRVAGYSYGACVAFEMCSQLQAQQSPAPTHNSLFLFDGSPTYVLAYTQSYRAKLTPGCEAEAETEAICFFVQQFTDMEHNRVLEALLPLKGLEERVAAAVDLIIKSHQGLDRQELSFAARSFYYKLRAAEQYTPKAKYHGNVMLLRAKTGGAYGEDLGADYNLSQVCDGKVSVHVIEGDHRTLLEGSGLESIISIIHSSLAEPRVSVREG
Assay type: biochemical
Experimental: FAS activity was measured through one of the two following assays.
Inhibition of FAS activity can be measured based on the detection of residual NADPH substrate after the FAS assay is quenched. This assay is run as a 10 μL, endpoint assay in 384-well format, where the reaction contains 20 μM malonyl-CoA, 2 μM acetyl-CoA, 30 μM NADPH and 40 nM FAS in 50 mM sodium phosphate, pH 7.0. The assay is run by sequentially dispensing 5 μl of a malonyl-CoA solution, then enzyme solution (containing the acetyl-CoA, and NADPH) into a black, low volume assay plate (Greiner 784076) pre-dispensed with 100 nL compound solutions in DMSO. The reaction is incubated at ambient temperature for 60 minutes, then quenched with 5 μL, of a developing solution composed of 90 μM resazurin, 0.3 IU/ml diaphorase in 50 mM sodium phosphate, pH 7.0. The developed reaction is read on a Molecular Devices Analyst or Acquest (or equivalent) plate reader using a 530 nm excitation wavelength filter, a 580 nm emission filter, and 561 nm dichroic filter. The test compounds are prepared in neat DMSO at a concentration of 10 mM. For inhibition curves, compounds are diluted using a three fold serial dilution and tested at 11 concentrations (e.g. 25 μM-0.42 nM). Curves are analysed using ActivityBase and XLfit, and results are expressed as pIC50 values.
Inhibition of FAS can also be quantified based on the detection of the CoA products with a thio-reactive coumarin dye. This assay is run as a 10 μL endpoint assay in 384-well format, where the reaction contains 20 μM malonyl-CoA, 20 μM acetyl-CoA, 40 μM NADPH and 2 nM FAS in 50 mM sodium phosphate, pH 7.0, and 0.04% Tween-20. The assay is run by adding 5 μL enzyme solution to a black, low volume assay plate (Greiner 784076) pre-dispensed with 100 nl compound solutions in DMSO. After 30 minutes, 5 μL substrate is added, and the reaction incubated at ambient temperature for an additional 60 minutes. The reaction is then quenched with 10 μL of 6M guanidine-HCl containing 50 μM CPM (7-diethylamino-3-(4′-maleimidylphenyl)-4-methylcoumarin (CPM; thio-reactive dye), and incubated for 30 minutes. The plate is read on an Envision (PerkinElmer) or equivalent plate reader using a 380 nm excitation wavelength filter, and a 486 nm emission filter. Data fitting and compound preparations are done as described above.
For `CCN1CC2(CCN(S(=O)(=O)c3ccc(-c4ccc5occc5c4)cc3)CC2)OCC1=O` [Example 3, 9-{[4-(1-benzofuran-5-yl)phenyl]sulfonyl}-4-ethyl-1-oxa-4,9-diazaspiro[5.5]undecan-3-one], the IC50 was 251 nM. `O=C1COC2(CCN(S(=O)(=O)c3ccc(-c4ccccc4)cc3)CC2)CN1C1CC1` [Example 13, 9-(4-biphenylylsulfonyl)-4-cyclopropyl-1-oxa-4,9-diazaspiro[5.5]undecan-3-one] showed an IC50 of 1260 nM. `O=C1COC2(CCN(S(=O)(=O)c3ccc(-c4ccc5cc[nH]c5c4)cc3)CC2)CN1C1CC1` [Example 14, 4-cyclopropyl-9-{[4-(1H-indol-6-yl)phenyl]sulfonyl}-1-oxa-4,9-diazaspiro[5.5]undecan-3-one] was tested, and the IC50 was 40 nM. `O=C1COC2(CCN(S(=O)(=O)c3ccc(-c4cc5ccccc5o4)cc3)CC2)CN1C1CC1` [Example 26, 9-{[4-(1-benzofuran-2-yl)phenyl]sulfonyl}-4-cyclopropyl-1-oxa-4,9-diazaspiro[5.5]undecan-3-one] was tested, and the IC50 was 200 nM. Work on `O=C1COC2(CCN(S(=O)(=O)c3ccc(-c4ccc5cccnc5c4)cc3)CC2)CN1C1CC1` [Example 29, 4-cyclopropyl-9-{[4-(7-quinolinyl)phenyl]sulfonyl}-1-oxa-4,9-diazaspiro[5.5]undecan-3-one] yielded an IC50 of 10 nM. Work on `O=C1COC2(CCN(S(=O)(=O)c3ccc(-c4ccc5cccnc5c4)cc3F)CC2)CN1C1CC1` [Example 59, 4-cyclopropyl-9-{[2-fluoro-4-(7-quinolinyl)phenyl]sulfonyl}-1-oxa-4,9-diazaspiro[5.5]undecan-3-one] yielded an IC50 of 13 nM. In the case of `O=C1COC2(CCN(S(=O)(=O)c3ccc(-c4ccc5[nH]ccc5c4)cc3F)CC2)CN1C1CC1` [Example 70, 4-cyclopropyl-9-{[2-fluoro-4-(1H-indol-5-yl)phenyl]sulfonyl}-1-oxa-4,9-diazaspiro[5.5]undecan-3-one], the IC50 is reported as 32 nM. `O=C1COC2(CCN(S(=O)(=O)c3ccc(-c4ccc5scnc5c4)cc3F)CC2)CN1C1CC1` [Example 76, 9-{[4-(1,3-benzothiazol-5-yl)-2-fluorophenyl]sulfonyl}-4-cyclopropyl-1-oxa-4,9-diazaspiro[5.5]undecan-3-one] showed an IC50 of 32 nM. With `O=C1COC2(CCN(S(=O)(=O)c3ccc(-c4ccc5cnccc5c4)cc3)CC2)CN1C1CC1` [Example 86, 4-cyclopropyl-9-{[4-(6-isoquinolinyl)phenyl]sulfonyl}-1-oxa-4,9-diazaspiro[5.5]undecan-3-one] the IC50 was 6 nM. `Cn1nc(NS(C)(=O)=O)c2cc(-c3ccc(S(=O)(=O)N4CCC5(CC4)CN(C4CC4)C(=O)CO5)cc3)ccc21` [Example 105, N-(5-{4-[(4-cyclopropyl-3-oxo-1-oxa-4,9-diazaspiro[5.5]undec-9-yl)sulfonyl]phenyl}-1-methyl-1H-indazol-3-yl)methanesulfonamide] gave an IC50 of 63 nM.
